Article PMC5053523, “In Vitro Antibacterial Activity of Rhodanine Derivatives against Pathogenic Clinical Isolates” (PLoS ONE, 2016)
In brackets after ≈: the same amount, converted by molar mass. Where two headings read alike, the source gives them in different places.

Experiments:
B. cereus = assay: Broth microdilution MIC/MBC, B. cereus; assay type: cell-based; conditions: Bacillus cereus; for MBC: read-out: MBC; for MIC: read-out: MIC
Excerpt: The broth microdilution technique was used, followed by subculturing on agar plates that were rhodanine—free.

[1] = system: Vancomycin Resistant Staphylococcus aureus (VRSA); assay: Broth microdilution MIC/MBC, VRSA; assay type: cell-based; conditions: for MBC / MIC: VRSA
[2] = system: vancomycin resistant enterococci (VRE) E. faecium; assay: Broth microdilution MIC/MBC, VRE E. faecium; assay type: cell-based; conditions: for MIC: read-out: MIC
Escherichia coli Δ acrAB = assay: MIC against E. coli 1411 and AcrAB efflux pump deficient E. coli SM1411Δ acrAB; assay type: cell-based
Description: (§1) The MIC of the rhodanines and control antibiotics, in the presence of a sub-inhibitory concentration of colistin or polymixin B nonapeptide (PMBN), against Gram-negative bacteria was evaluated as described before. The antibacterial activity of the rhodanines was further investigated against E. coli SM1411Δ acrAB, a strain that is deficient in the multidrug-resistant AcrAB efflux pump, as described before.

Escherichia coli O157:H7 = assay: MIC with/without PMBN, Escherichia coli O157:H7; assay type: cell-based
Description: as §1

Bacillus Strains = assay: Broth microdilution MIC50/MIC90 and MIC range, Bacillus strains panel; assay type: cell-based, Bacillus spp.; conditions: 10 Bacillus strains
Excerpt: The broth microdilution technique was used, followed by subculturing on agar plates that were rhodanine—free. […] The MICs reported represent the lowest concentration of each compound necessary to inhibit bacterial growth and the MBCs represent the lowest concentration required to reduce the initial bacterial inoculum by ≥ 99.9%.

Salmonella Typhimurium = assay: MIC with/without PMBN, Salmonella Typhimurium; assay type: cell-based
Description: as §1

P. aeruginosa = assay: Broth microdilution MIC, P. aeruginosa; assay type: cell-based; conditions: Pseudomonas aeruginosa
Mycobacterium smegmatis = assay: Broth microdilution MIC/MBC, Mycobacterium smegmatis; assay type: cell-based; conditions: Mycolicibacterium smegmatis, ATCC14468, M. Smegmatis ATCC 14468
Clostridium difficile = assay: MIC against Clostridium difficile, anaerobic broth dilution; assay type: cell-based; conditions: Clostridioides difficile
Description: Clinical isolates of C. difficile were cultured on anaerobic blood agar and incubated anaerobically using container gas pack system at 37° C for 48 hours. The colonies were then suspended in pre-reduced phosphate buffered saline (PBS) and adjusted to 0.5 McFarland standard then diluted 1:300 in pre-reduced Supplemented Brain Heart Infusion broth. The bacterial suspension was then transferred to each well of 96-well plates, the drugs were added to the first row of wells in the required concentrations and serially diluted along the plates. The plates were incubated again anaerobically using container gas pack system at 37° C for 48 hours. The (MIC) recorded was the lowest concentration of the drug showing no visible growth of the bacteria.

[3] = system: vancomycin resistant enterococci (VRE) E. faecalis; assay: Broth microdilution MIC/MBC, VRE E. faecalis; assay type: cell-based; conditions: for MIC: read-out: MIC
[4] = NRS201, B. cereus NRS 201 NR-2488
[5] = E. faecium HM 968 Strain ERV102
[6] = E. faecium NR31914 Strain E0120
[7] = E. faecium Patient #1–1 NR-31903
[8] = E. faecalis NR31972 Strain SF 28073

## O=C(O)[C@H](Cc1ccccc1)N1C(=O)/C(=C/c2cccc(Cc3ccc(Cl)c(Cl)c3)c2)SC1=S [Rh 3]
B. cereus; B. cereus BAG1O-2 NR-28582
  MBC: 4 µM (≈ 2.11 µg/mL)
  MIC: 4 µM (≈ 2.11 µg/mL)
B. cereus; B. cereus BAG1X1-1 NR-28575
  MBC: 2 µM (≈ 1.06 µg/mL)
  MIC: 2 µM (≈ 1.06 µg/mL)
B. cereus; B. cereus BAG1X2-1 NR-28578
  MBC: 4 µM (≈ 2.11 µg/mL)
  MIC: 4 µM (≈ 2.11 µg/mL)
B. cereus; B. cereus G9241 NR-9564
  MBC: 4 µM (≈ 2.11 µg/mL)
  MIC: 4 µM (≈ 2.11 µg/mL)
B. cereus; B. cereus VD014 NR-22141
  MBC: 4 µM (≈ 2.11 µg/mL)
  MIC: 4 µM (≈ 2.11 µg/mL)
B. cereus; B. cereus VD115 NR-22148
  MBC: 4 µM (≈ 2.11 µg/mL)
  MIC: 4 µM (≈ 2.11 µg/mL)
B. cereus; B. cereus VD148 NR-22150
  MBC: 8 µM (≈ 4.23 µg/mL)
  MIC: 8 µM (≈ 4.23 µg/mL)
B. cereus; [4]
  MBC: 4 µM (≈ 2.11 µg/mL)
  MIC: 4 µM (≈ 2.11 µg/mL)
[1]; 15 VRSA strains, read-out: MIC 50
  MIC50: 8 µM (≈ 4.23 µg/mL)
[1]; 15 VRSA strains, read-out: MIC 90
  MIC90: 8 µM (≈ 4.23 µg/mL)
[1]; VRSA 1, read-out: MBC
  MBC: 32 µM (≈ 16.9 µg/mL)
[1]; VRSA 1, read-out: MIC
  MIC: 8 µM (≈ 4.23 µg/mL)
[1]; VRSA 2, read-out: MBC
  MBC: 16 µM (≈ 8.46 µg/mL)
[1]; VRSA 2, read-out: MIC
  MIC: 8 µM (≈ 4.23 µg/mL)
[1]; VRSA 3a, read-out: MBC
  MBC: 16 µM (≈ 8.46 µg/mL)
[1]; VRSA 3a, read-out: MIC
  MIC: 16 µM (≈ 8.46 µg/mL)
[1]; VRSA 3b, read-out: MBC
  MBC: 8 µM (≈ 4.23 µg/mL)
[1]; VRSA 3b, read-out: MIC
  MIC: 8 µM (≈ 4.23 µg/mL)
[1]; VRSA 4, read-out: MBC
  MBC: 32 µM (≈ 16.9 µg/mL)
[1]; VRSA 4, read-out: MIC
  MIC: 8 µM (≈ 4.23 µg/mL)
[1]; VRSA 5, read-out: MBC
  MBC: 64 µM (≈ 33.8 µg/mL)
[1]; VRSA 5, read-out: MIC
  MIC: 8 µM (≈ 4.23 µg/mL)
[1]; VRSA 6, read-out: MBC
  MBC: 16 µM (≈ 8.46 µg/mL)
[1]; VRSA 6, read-out: MIC
  MIC: 8 µM (≈ 4.23 µg/mL)
[1]; VRSA 7, read-out: MBC
  MBC: 32 µM (≈ 16.9 µg/mL)
[1]; VRSA 7, read-out: MIC
  MIC: 8 µM (≈ 4.23 µg/mL)
[1]; VRSA 8, read-out: MBC
  MBC: 16 µM (≈ 8.46 µg/mL)
[1]; VRSA 8, read-out: MIC
  MIC: 8 µM (≈ 4.23 µg/mL)
[1]; VRSA 9, read-out: MBC
  MBC: 16 µM (≈ 8.46 µg/mL)
[1]; VRSA 9, read-out: MIC
  MIC: 8 µM (≈ 4.23 µg/mL)
[1]; VRSA 10, read-out: MBC
  MBC: 64 µM (≈ 33.8 µg/mL)
[1]; VRSA 10, read-out: MIC
  MIC: 8 µM (≈ 4.23 µg/mL)
[1]; VRSA 11a, read-out: MBC
  MBC: 16 µM (≈ 8.46 µg/mL)
[1]; VRSA 11a, read-out: MIC
  MIC: 8 µM (≈ 4.23 µg/mL)
[1]; VRSA 11b, read-out: MBC
  MBC: 16 µM (≈ 8.46 µg/mL)
[1]; VRSA 11b, read-out: MIC
  MIC: 8 µM (≈ 4.23 µg/mL)
[1]; VRSA 12, read-out: MBC
  MBC: 32 µM (≈ 16.9 µg/mL)
[1]; VRSA 12, read-out: MIC
  MIC: 8 µM (≈ 4.23 µg/mL)
[1]; VRSA 13, read-out: MBC
  MBC: 32 µM (≈ 16.9 µg/mL)
[1]; VRSA 13, read-out: MIC
  MIC: 8 µM (≈ 4.23 µg/mL)
[2]; E. faecium E417 HM-965
  MBC: 64 µM (≈ 33.8 µg/mL)
  MIC: 4 µM (≈ 2.11 µg/mL)
[2]; E. faecium E1071 NR-28978
  MBC: > 64 µM
  MIC: 8 µM (≈ 4.23 µg/mL)
[2]; [5]
  MBC: 64 µM (≈ 33.8 µg/mL)
  MIC: 4 µM (≈ 2.11 µg/mL)
[2]; [6]
  MBC: 64 µM (≈ 33.8 µg/mL)
  MIC: 8 µM (≈ 4.23 µg/mL)
[2]; [7]
  MBC: 64 µM (≈ 33.8 µg/mL)
  MIC: 4 µM (≈ 2.11 µg/mL)
Escherichia coli Δ acrAB; E.coli 1411
  MIC: > 64 µM
Escherichia coli Δ acrAB; E.coli 1411 SM (Δ acrAB, AcrAB efflux pump deficient)
  MIC: > 64 µM
Escherichia coli O157:H7; Escherichia coli O157:H7 ATCC 35150, PMBN (+) 4 μg/mL, read-out: MIC
  MIC: 8 µM (≈ 4.23 µg/mL)
Escherichia coli O157:H7; Escherichia coli O157:H7 ATCC 700728, PMBN (+) 4 μg/mL, read-out: MIC
  MIC: >64 µM
Escherichia coli O157:H7; Escherichia coli, ATCC35150
  MIC: > 256 µM
Escherichia coli O157:H7; Escherichia coli, ATCC700728
  MIC: > 128 µM
Bacillus Strains
  MIC50: 4 µM (≈ 2.11 µg/mL)
  MIC90: 4 µM (≈ 2.11 µg/mL)
Salmonella Typhimurium; Salmonella Typhimurium ATCC 700720, PMBN (+) 4 μg/mL, read-out: MIC
  MIC: >128 µM
Salmonella Typhimurium; Salmonella enterica, ATCC 700720 / TYPHIMURIUM
  MIC: > 128 µM
P. aeruginosa; ATCC9721
  MIC: > 128 µM
P. aeruginosa; ATCC15442
  MIC: > 128 µM
Mycobacterium smegmatis; read-out: MBC
  MBC: 8 µM (≈ 4.23 µg/mL)
Mycobacterium smegmatis; read-out: MIC
  MIC: 4 µM (≈ 2.11 µg/mL)
Clostridium difficile; C. difficile HM-88
  MIC: 2 µM (≈ 1.06 µg/mL)
Clostridium difficile; C. difficile HM-745
  MIC: 1 µM (≈ 0.528 µg/mL)
Clostridium difficile; C. difficile HM-746
  MIC: 2 µM (≈ 1.06 µg/mL)
Clostridium difficile; C. difficile Isolate-1 NR-13427
  MIC: 2 µM (≈ 1.06 µg/mL)
Clostridium difficile; C. difficile Toxigenic Strain P8 NR-32888
  MIC: 4 µM (≈ 2.11 µg/mL)
[3]; E. faecalis ERV103 HM-934
  MBC: 8 µM (≈ 4.23 µg/mL)
  MIC: 4 µM (≈ 2.11 µg/mL)
[3]; [8]
  MBC: 64 µM (≈ 33.8 µg/mL)
  MIC: 4 µM (≈ 2.11 µg/mL)
[3]; E. faecalis R712 HM-335
  MBC: 4 µM (≈ 2.11 µg/mL)
  MIC: 4 µM (≈ 2.11 µg/mL)
[3]; E. faecalis S613 HM-334
  MBC: 8 µM (≈ 4.23 µg/mL)
  MIC: 4 µM (≈ 2.11 µg/mL)
[3]; E. faecalis TX0104 HM-201
  MBC: 8 µM (≈ 4.23 µg/mL)
  MIC: 4 µM (≈ 2.11 µg/mL)
